For 36 compounds, Emax and EC50 results are on record in patent US20230373939A1 (VERTEX PHARMACEUTICALS INCORPORATED, priority 2020, published 2023).

This test addresses T1, F508del in NIH 3T3 cells (Homo sapiens, UniProt P13569, DEL508-508).
T1 construct: expressed in transfected cells
Kind of test: 3T3 assay: membrane potential optical assay for F508del correction. It is filed as cell-based. An excerpt:
1. Membrane Potential Optical Methods for Assaying F508del Modulation Properties of Compounds
The assay utilizes fluorescent voltage sensing dyes to measure changes in membrane potential using a fluorescent plate reader (e.g., FLTPR III, Molecular Devices, Inc.) as a readout for increase in functional F508del in NIH 3T3 cells. The driving force for the response is the creation of a chloride ion gradient in conjunction with channel activation by a single liquid addition step after the cells have previously been treated with compounds and subsequently loaded with a voltage sensing dye.
2. Identification of Corrector Compounds
To identify correctors of F508del, a single-addition HTS assay format was developed. This HTS assay utilizes fluorescent voltage sensing dyes to measure changes in membrane potential on the FLIPR III as a measurement for increase in gating (conductance) of F508del in F508del NUT 3T3 cells. The F508del NUT 3T3 cell cultures were incubated with the corrector compounds at a range of concentrations for 18-24 hours at 37° C., and subsequently loaded with a redistribution dye. The driving force for the response is a Cl^− ion gradient in conjunction with channel activation with forskolin in a single liquid addition step using a fluorescent plate reader such as FLIPR III.
Bath Solution #1: (in mM) NaCl 160, KCl 4.5, CaCl2 2, MgCl2 1, HEPES 10, pH 7.4 with NaOH.
Chloride-free bath solution: Chloride salts in Bath Solution #1 (above) are substituted with gluconate salts.
NIH3T3 mouse fibroblasts stably expressing F508del were used for optical measurements of membrane potential. The cells were maintained at 37° C. in 5% CO2 and 90% humidity in Dulbecco's modified Eagle's medium supplemented with 2 mM glutamine, 10% fetal bovine serum, 1×NEAA, b-ME, 1×pen/strep, and 25 mM HEPES in 175 cm^2 culture flasks. For all optical assays, the cells were seeded at ˜20,000/well in 384-well Matrigel-coated plates. For the correction assays, the cells were cultured at 37° C. with and without compounds for 16-24 hours.

The mark [1] stands for this setting: NIH3T3, NIH 3T3 cells, F508del, read-out: 3T3 Max Activity (%).
[2] abbreviates: NIH 3T3 cells, F508del, read-out: 3T3 EC50.
Where [3] appears, read: NIH3T3, read-out: 3T3 Max Activity (%).

Read-outs that look alike come from different tables or passages of the source.

T1 sequence (P13569 with tags, fused parts or gaps DEL508-508): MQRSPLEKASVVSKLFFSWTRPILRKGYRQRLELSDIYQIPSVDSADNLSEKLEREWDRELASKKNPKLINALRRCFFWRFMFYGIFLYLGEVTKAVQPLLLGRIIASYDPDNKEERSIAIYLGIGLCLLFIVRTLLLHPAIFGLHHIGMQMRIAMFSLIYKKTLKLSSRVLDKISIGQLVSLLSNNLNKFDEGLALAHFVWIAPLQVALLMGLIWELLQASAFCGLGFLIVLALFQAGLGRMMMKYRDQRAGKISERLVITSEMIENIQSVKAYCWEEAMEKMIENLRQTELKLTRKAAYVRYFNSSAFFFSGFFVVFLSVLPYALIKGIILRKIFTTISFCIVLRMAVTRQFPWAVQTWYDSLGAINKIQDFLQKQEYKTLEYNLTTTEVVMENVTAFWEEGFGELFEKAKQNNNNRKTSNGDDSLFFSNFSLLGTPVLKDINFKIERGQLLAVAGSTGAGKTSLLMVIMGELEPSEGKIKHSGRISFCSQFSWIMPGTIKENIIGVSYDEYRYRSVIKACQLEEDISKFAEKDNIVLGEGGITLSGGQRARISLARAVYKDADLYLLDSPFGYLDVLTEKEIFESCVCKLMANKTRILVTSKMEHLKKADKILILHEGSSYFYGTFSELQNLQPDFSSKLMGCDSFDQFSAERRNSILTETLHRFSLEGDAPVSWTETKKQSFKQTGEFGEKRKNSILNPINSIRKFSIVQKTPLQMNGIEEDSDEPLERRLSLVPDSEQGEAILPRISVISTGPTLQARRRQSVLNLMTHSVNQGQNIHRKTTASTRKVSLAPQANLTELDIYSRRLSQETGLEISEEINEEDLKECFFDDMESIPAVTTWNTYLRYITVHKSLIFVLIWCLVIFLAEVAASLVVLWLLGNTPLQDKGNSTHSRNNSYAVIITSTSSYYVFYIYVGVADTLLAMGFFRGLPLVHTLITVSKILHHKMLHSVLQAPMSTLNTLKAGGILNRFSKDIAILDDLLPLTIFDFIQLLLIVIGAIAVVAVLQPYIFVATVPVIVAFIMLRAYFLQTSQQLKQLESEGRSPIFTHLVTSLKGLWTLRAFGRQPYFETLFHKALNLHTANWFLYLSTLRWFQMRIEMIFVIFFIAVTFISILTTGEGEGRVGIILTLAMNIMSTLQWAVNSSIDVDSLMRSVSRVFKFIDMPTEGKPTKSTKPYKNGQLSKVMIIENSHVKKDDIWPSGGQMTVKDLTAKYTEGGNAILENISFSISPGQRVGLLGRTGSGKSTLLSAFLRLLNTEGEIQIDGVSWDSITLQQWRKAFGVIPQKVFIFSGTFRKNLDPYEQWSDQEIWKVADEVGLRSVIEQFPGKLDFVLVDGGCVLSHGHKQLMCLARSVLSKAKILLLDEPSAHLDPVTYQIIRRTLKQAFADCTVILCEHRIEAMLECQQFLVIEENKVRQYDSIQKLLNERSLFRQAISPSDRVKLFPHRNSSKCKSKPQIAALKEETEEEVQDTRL

For the compound `Cc1cc(C)c(-n2nc(NS(=O)(=O)c3ccccc3)cc2C2CCCCC2)c(C)c1` [Compound 64, N-[5-cyclohexyl-1-(2,4,6-trimethylphenyl)pyrazol-3-yl]benzenesulfonamide], under setting [1], the Emax was above 60%. The EC50 under setting [2] is below 1 µM.

Consider `C=C(C)c1cc(NS(=O)(=O)c2ccccc2)nn1-c1c(C)cc(C)cc1C` [Compound 65, N-[5-isopropenyl-1-(2,4,6-trimethylphenyl)pyrazol-3-yl]benzenesulfonamide], for which, under setting [1], the Emax is above 60%. Under setting [2], the EC50 was in the range of 1 to 3 µM.

Consider `Cc1cc(C)c(-n2nc(NS(=O)(=O)c3ccccc3)cc2C(C)C)c(C)c1` [Compound 66, N-[5-isopropyl-1-(2,4,6-trimethylphenyl)pyrazol-3-yl]benzenesulfonamide], for which the Emax under setting [1] lay in the range of 30 to 60%. Besides, the EC50 under setting [2] lay within 1 to 3 µM.

As to `Cc1cc(C)c(-n2nc(NS(=O)(=O)c3ccccc3)cc2Br)c(C)c1` [Compound 67, N-[5-bromo-1-(2,4,6-trimethylphenyl)pyrazol-3-yl]benzenesulfonamide], the Emax under setting [1] was above 60%. The EC50 under setting [2] lay within 1 to 3 µM.

As for `Cc1cc(C)c(-n2nc(NS(=O)(=O)c3ccccc3)cc2-c2ccccc2)c(C)c1` [Compound 68, N-[5-phenyl-1-(2,4,6-trimethylphenyl)pyrazol-3-yl]benzenesulfonamide], the Emax under setting [1] is above 60%. Moreover, the EC50 under setting [2] lay within 1 to 3 µM.

Consider `O=S(=O)(Nc1nn(-c2cccc(Cl)c2)cc1-c1ccccc1)c1ccccc1` [Compound 69, N-[1-(3-chlorophenyl)-4-phenyl-pyrazol-3-yl]benzenesulfonamide], for which the Emax under setting [3] was 30 to 60%. In addition, under setting [2], the EC50 is 1 to 3 µM.

Compound `O=S(=O)(Nc1nn(-c2cccc(Cl)c2)cc1-c1cccc(Cl)c1)c1ccccc1` [Compound 70, N-[1,4-bis(3-chlorophenyl)pyrazol-3-yl]benzenesulfonamide] returned an EC50 below 1 µM. The Emax under setting [3] fell in the range of 30 to 60%.

Take `O=S(=O)(Nc1cc(Cc2ccccc2)n(-c2ccccc2)n1)c1ccccc1` [Compound 71, N-(5-benzyl-1-phenyl-pyrazol-3-yl)benzenesulfonamide]: the Emax under setting [1] is below 30%.

`Cn1cc(S(=O)(=O)Nc2nn(-c3ccccc3)cc2Cc2ccccc2)cn1` [Compound 72, N-(4-benzyl-1-phenyl-pyrazol-3-yl)-1-methyl-pyrazole-4-sulfonamide]: the Emax under setting [1] was below 30%.

With `Nc1cccc(S(=O)(=O)Nc2nn(-c3ccccc3)cc2Cc2ccccc2)c1` [Compound 73, 3-amino-N-(4-benzyl-1-phenyl-pyrazol-3-yl)benzenesulfonamide], the Emax under setting [1] lay within 30 to 60%.

As to `O=S(=O)(Nc1nn(-c2ccccc2)cc1Cc1ccccc1)c1ccccc1` [Compound 74, N-(4-benzyl-1-phenyl-pyrazol-3-yl)benzenesulfonamide], under setting [1], the Emax is below 30%.

For the compound `O=S(=O)(Nc1nn(-c2ccccc2)cc1-c1cccs1)c1ccccc1` [Compound 75, N-[1-phenyl-4-(2-thienyl)pyrazol-3-yl]benzenesulfonamide], the Emax under setting [1] is below 30%.

For `O=S(=O)(Nc1n[nH]cc1-c1ccccc1)c1ccccc1` [Compound 77, N-(4-phenyl-1H-pyrazol-3-yl)benzenesulfonamide], the Emax under setting [1] was below 30%.

In the case of `O=S(=O)(Nc1ccnn1CC1CC1)c1ccccc1` [Compound 78, N-[2-(cyclopropylmethyl)pyrazol-3-yl]benzenesulfonamide], the Emax under setting [1] was below 30%.

With `O=S(=O)(Nc1ccnn1C1CCCCC1)c1ccccc1` [Compound 79, N-(2-cyclohexylpyrazol-3-yl)benzenesulfonamide], the Emax under setting [1] was below 30%.

Take `Cc1ccc(-n2nc(NS(=O)(=O)c3ccccc3)cc2C(C)(C)C)cc1` [Compound 80, N-[5-tert-butyl-1-(p-tolyl)pyrazol-3-yl]benzenesulfonamide]: the Emax under setting [1] was 30 to 60%.

On to `CC(C)Cc1cn(-c2cccc(Cl)c2)nc1NS(=O)(=O)c1ccccc1` [Compound 81, N-[1-(3-chlorophenyl)-4-isobutyl-pyrazol-3-yl]benzenesulfonamide], for which the Emax under setting [1] was below 30%.

As to `CC(C)Cc1cn(-c2ccccc2)nc1NS(=O)(=O)c1ccccc1` [Compound 82, N-(4-isobutyl-1-phenyl-pyrazol-3-yl)benzenesulfonamide], the Emax under setting [1] was below 30%.

For `O=S(=O)(Nc1nn(-c2cccc(Cl)c2)cc1C1CCCCC1)c1ccccc1` [Compound 83, N-[1-(3-chlorophenyl)-4-cyclohexyl-pyrazol-3-yl]benzenesulfonamide], the Emax under setting [1] is below 30%.

For `O=S(=O)(Nc1nn(-c2ccccc2)cc1C1CCCCC1)c1ccccc1` [Compound 84, N-(4-cyclohexyl-1-phenyl-pyrazol-3-yl)benzenesulfonamide], under setting [1], the Emax was below 30%.

As for `CC(C)=Cc1cn(-c2cccc(Cl)c2)nc1NS(=O)(=O)c1ccccc1` [Compound 85, N-[1-(3-chlorophenyl)-4-(2-methylprop-1-enyl)pyrazol-3-yl]benzenesulfonamide], under setting [1], the Emax lay within 30 to 60%. The EC50 under setting [2] was in the range of 3 to 30 µM.

Consider `C=C(C)c1cn(-c2cccc(Cl)c2)nc1NS(=O)(=O)c1ccccc1` [Compound 86, N-[1-(3-chlorophenyl)-4-isopropenyl-pyrazol-3-yl]benzenesulfonamide], for which the Emax under setting [1] was in the range of 30 to 60%. The EC50 under setting [2] fell in the range of 3 to 30 µM.

Consider `O=S(=O)(Nc1nn(-c2cccc(Cl)c2)cc1C1=CCCCC1)c1ccccc1` [Compound 87, N-[1-(3-chlorophenyl)-4-(cyclohexen-1-yl)pyrazol-3-yl]benzenesulfonamide], for which the Emax under setting [1] was 30 to 60%. Besides, the EC50 under setting [2] is 1 to 3 µM.

As for `O=S(=O)(Nc1nn(-c2cccc(Cl)c2)cc1-c1ccc(Cl)cc1)c1ccccc1` [Compound 88, N-[1-(3-chlorophenyl)-4-(4-chlorophenyl)pyrazol-3-yl]benzenesulfonamide], under setting [1], the Emax was below 30%.

For `O=S(=O)(Nc1nn(-c2cccc(Cl)c2)cc1-c1ccccc1Cl)c1ccccc1` [Compound 89, N-[4-(2-chlorophenyl)-1-(3-chlorophenyl)pyrazol-3-yl]benzenesulfonamide], the Emax under setting [1] is below 30%.

Regarding `COc1ccc(-c2cn(-c3cccc(Cl)c3)nc2NS(=O)(=O)c2ccccc2)cc1` [Compound 90, N-[1-(3-chlorophenyl)-4-(4-methoxyphenyl)pyrazol-3-yl]benzenesulfonamide], under setting [1], the Emax is below 30%. The EC50 under setting [2] is below 1 µM.

For `COc1cccc(-c2cn(-c3cccc(Cl)c3)nc2NS(=O)(=O)c2ccccc2)c1` [Compound 91, N-[1-(3-chlorophenyl)-4-(3-methoxyphenyl)pyrazol-3-yl]benzenesulfonamide], under setting [1], the Emax lay in the range of 30 to 60%. Further, the EC50 under setting [2] lay within 1 to 3 µM.

In the case of `COc1ccccc1-c1cn(-c2cccc(Cl)c2)nc1NS(=O)(=O)c1ccccc1` [Compound 92, N-[1-(3-chlorophenyl)-4-(2-methoxyphenyl)pyrazol-3-yl]benzenesulfonamide], the Emax under setting [1] lay within 30 to 60%. Also, under setting [2], the EC50 is 1 to 3 µM.

In the case of `Cc1ccc(-c2cn(-c3cccc(Cl)c3)nc2NS(=O)(=O)c2ccccc2)cc1` [Compound 93, N-[1-(3-chlorophenyl)-4-(p-tolyl)pyrazol-3-yl]benzenesulfonamide], the Emax under setting [1] was below 30%.

As to `Cc1cccc(-c2cn(-c3cccc(Cl)c3)nc2NS(=O)(=O)c2ccccc2)c1` [Compound 94, N-[1-(3-chlorophenyl)-4-(m-tolyl)pyrazol-3-yl]benzenesulfonamide], under setting [1], the Emax fell in the range of 30 to 60%. Besides, the EC50 under setting [2] was in the range of 1 to 3 µM.

With `Cc1ccccc1-c1cn(-c2cccc(Cl)c2)nc1NS(=O)(=O)c1ccccc1` [Compound 95, N-[1-(3-chlorophenyl)-4-(o-tolyl)pyrazol-3-yl]benzenesulfonamide], under setting [1], the Emax is below 30%.

Turning to `Cc1cc(C)c(-n2cc(-c3ccccc3)c(NS(=O)(=O)c3ccccc3)n2)c(C)c1` [Compound 96, N-[4-phenyl-1-(2,4,6-trimethylphenyl)pyrazol-3-yl]benzenesulfonamide], the Emax under setting [1] was 30 to 60%. In addition, the EC50 under setting [2] was below 1 µM.

As to `C=C(C)c1cn(-c2c(C)cc(C)cc2C)nc1NS(=O)(=O)c1ccccc1` [Compound 97, N-[4-isopropenyl-1-(2,4,6-trimethylphenyl)pyrazol-3-yl]benzenesulfonamide], under setting [1], the Emax was below 30%.

Regarding `Cc1cc(C)c(-n2cc(C(C)C)c(NS(=O)(=O)c3ccccc3)n2)c(C)c1` [Compound 98], the Emax under setting [1] is below 30%.

For the compound `Cc1cc(C)c(-n2cc(Br)c(NS(=O)(=O)c3ccccc3)n2)c(C)c1` [Compound 99, N-[4-bromo-1-(2,4,6-trimethylphenyl)pyrazol-3-yl]benzenesulfonamide], under setting [1], the Emax was below 30%.

Regarding `Cc1ccc(-n2nc(NS(=O)(=O)c3ccccc3)cc2C)cc1` [Compound 100, N-[5-methyl-1-(p-tolyl)pyrazol-3-yl]benzenesulfonamide], the Emax under setting [1] is below 30%.
